The record followed here is US10793589B2, “Resorcinarene-based amphipathic compound and use thereof” (Industry-University Cooperation Foundation Hanyang …, priority 2016, dated 2020).

“Also recorded” adds a separate entry of the source.

Data set [1] addresses T1, human β2 adrenergic receptor (β2AR) (Homo sapiens, UniProt P07550).
T1 construct: made in house
Description: β2AR stability, [3H]-dihydroalprenolol (DHA) ligand binding assay. The data set is classed as biochemical. Particulars: for maintaining the ligand binding characteristic of the receptor compared to DDM: 0 hour, CMC+0.2 wt %, [3H]-DHA. The procedure: FIGS. 10A and 10B illustrate a result of measuring the effect of RGAs on the stability of β2AR after (a) 0 hour and (b) over time. Protein-ligand binding characteristics were measured via ligand binding assay using [^3H]-dihydroalprenolol (DHA), and the measurement was carried out by sampling a protein sample at regular intervals during 2 days of storage at room temperature.
FIGS. 12A and 12B illustrate a result of measuring the effect of RMAs on the stability of β2AR after (a) 0 hour and (b) over time. Protein-ligand binding characteristics were measured via ligand binding assay using [^3H]-dihydroalprenolol (DHA), and the measurement was carried out by sampling a protein sample at regular intervals during 2 days of storage at room temperature.
An experiment was carried out to measure the structural stability of a human (32 adrenergic receptor (β2AR) and a G protein-coupled receptor (GPCR) caused by RGAs and RMAs. That is, a receptor purified with DDM was diluted with a buffer solution containing only each RGA and RMA without cholesteryl hemisuccinate (CHS) or a buffer solution containing CHS and DDM. The final concentration of the compound was CMC+0.2 wt %, and the ligand binding characteristic of the receptor was measured using [^3H]-dihydroalprenolol ([^3H]-DHA) binding.
Specifically, radioligand binding assay was carried out using the following method. β2AR was purified using 0.1% DDM according to the method described in a paper (Science, 2007, 318, 1266-1273.) written by D. M. Rosenbaum et al. and finally concentrated to about 10 mg/ml (about 200 μM). The β2AR purified with DDM was used to prepare a master binding mixture containing 10 nM [^3H]-dihydroalprenolol (DHA) supplemented with 0.5 mg/ml BSA in a 0.2% amphipathic compound (DDM, RGAs or RMAs). The receptor purified with DDM, RGAs or RMAs was incubated with 10 nM [^3H]-DHA at room temperature for 30 minutes. The mixture was loaded into a G-50 column, the flow-through was collected with 1 ml of a binding buffer (20 mM HEPES pH 7.5, 100 mM NaCl, supplemented with 0.5 mg/ml BSA and 20×CMC individual amphipathic compound, and the G-50 column was further filled with 15 ml of a scintillation fluid. Receptor-bound [^3H]-DHA was measured with a scintillation counter (Beckman). The binding capacity of [^3H]-DHA was measured and shown in a column graph. Each experiment was performed in triplicate.

Data set [2] in a line: Critical micelle concentration by fluorescence dye diphenylhexatriene (DPH). Type of data set: physicochemical. Particulars: DPH fluorescence. The procedure:
A method of measuring the CMC is not particularly limited and may be any method generally known in the art. For example, the CMC may be measured according to a fluorescence staining method using diphenylhexatriene (DPH).
(§1) Specifically, critical micelle concentrations (CMCs) were measured using a fluorescence dye, diphenylhexatriene (DPH), and hydrodynamic radii (Rh) of micelles formed of each compound (1.0 wt %) were measured by a dynamic light scattering (DLS) experiment. Measured results are shown in Table 1 in comparison with values of DDM as an existing amphipathic molecule (detergent).

Data set [3] addresses T2, uric acid-xanthine/H+ symporter (UapA) (Emericella nidulans, UniProt Q07307, G411V).
T2 construct: GFP; made in house; host or cells: Saccharomyces cerevisiae FGY217
The data set can be described thus: UapA structural/thermal stability (FSEC, CPM assay). Type of data set: biochemical, Aspergillus nidulans. To be noted: FIG. 5 (RGAs, FSEC), FIG. 6 (RMAs, CPM assay 40° C. 150 min, CMC+0.04 or CMC+0.2 wt %). As to the method: FIGS. 5A and 5B are a set of graphs illustrating a result of measuring the thermal stability of UapA in an aqueous solution caused by RGAs or DDM via fluorescence-detection size exclusion chromatography (FSEC):
FIGS. 6A and 6B are a set of graph illustrating a result of measuring thermal denaturation profile of UapA protein in DDM and novel RMAs (RMA-Cs and RMA-CEs) used at CMC+0.04 wt % (a) or CMC+0.2 wt % (b). Protein stability was assessed by CPM assay carried out at 40° C. for 150 min.
An experiment was carried out to measure the structural stability of a uric acid-xanthine/H^+ symporter (UapA) isolated from Aspergillus nidulans caused by RGAs and RMAs. The structural stability of UapA was measured using a sulfhydryl-specific fluorophore, N-[4-(7-diethylamino-4-methyl-3-coumarinyl)phenyl] maleimide (CPM).
Specifically, UapAG411V1-11 (hereinafter, referred to as “UapA”) was expressed in combination with GFP in Saccharomyces cerevisiae FGY217 strains and isolated into a sample buffer (20 mM Tris (pH 7.5), 150 mM NaCl, 0.03% DDM, and 0.6 mM xanthine) according to the method described in the paper (Mol. Membr. Biol. 2013, 30, 32-42) written by J. Leung et al. The membranes containing UapA were diluted to a final protein concentration of 2.8 mg ml^−1 in PBS (pH 7.4) supplemented with either 1% DDM or 1% RMAs or RGAs. […]

Data set [4] in a line: Hydrodynamic radius and size distribution of micelles by dynamic light scattering (DLS). The data set is classed as physicochemical. Particulars: compound 1.0 wt %. The procedure: A method of measuring the radius of a micelle is not particularly limited and may be any method generally known in the art. For example, the radius may be measured by a dynamic light scattering (DLS) experiment.
as §1
Meanwhile, size distributions of the micelles formed by RGAs and RMAs were measured using DLS.

Data set [5] has as its target T3, Salmonella typhimurium melibiose permease (MelB) (Salmonella typhimurium, UniProt P30878).
T3 construct: made in house; host or cells: E. coli DW2 (melB and lacZY deleted), plasmid pK95AHB/WT MelBSt/CH10
Description: MelB extraction and solubility after 90 min incubation, SDS-PAGE and western blotting. The data set is classed as biochemical. Particulars: 55° C., 1.5 wt %. The procedure:
FIGS. 9A and 9B illustrate a result of measuring the amount of a MelB protein dissolved in an aqueous solution after a MelB protein was extracted at four temperatures (0, 45, 55, and 65) using RGAs or DDM at a concentration of 1.5 wt % and then incubated at the same temperatures for 90 minutes:
RGAs were selected, and an experiment was carried out to measure the structural stability of a Salmonella typhimurium melibiose permease (MelB) caused by RGAs. A MelB protein was extracted from a membrane using RGAs or DDM, and the amount and structure of the protein thus extracted was then analyzed by performing SDS-PAGE and western blotting. In this case, the concentration of the used amphipathic compound was 1.5 wt %. The protein was extracted at four temperatures (0, 45, 55, and 65° C.) and then incubated at the same temperatures for 90 minutes. Subsequently, two kinds of performance of the compound, that is, protein extraction efficiency and protein stability were evaluated at the same time by measuring the amount of a protein which remained dissolved in an aqueous solution. The amount of a protein which was extracted and stabilized by an individual amphipathic molecule was expressed as a relative value (%) with respect to the amount of the entire protein included in a membrane sample not treated with an amphipathic molecule.
Specifically, a C-terminal 10-His-tagged Salmonella typhimurium melibiose permease (MelBSt) was expressed in E. coli DW2 cells (melB and lacZY) using plasmid pK95AHB/WT MelBSt/CH10. Cells were grown and membranes were prepared according to the method described in a paper (Nat. Commun. 2014, 5, 3009) written by A. S. Ethayathulla et al. A protein assay was carried out with a Micro BCA kit (Thermo Scientific, Rockford, Ill.). RGAs and DDM were evaluated to measure the stability of MelBSt according to the protocol described in a paper (Nat. Methods 2010, 7, 1003-1008) written by P. S. Chae et al. The membrane sample (final protein concentration of 10 mg/mL) containing MelBSt was incubated in a solubilization buffer containing 1.5% (w/v) DDM or RGAs (20 mM sodium phosphate, pH 7.5, 200 mM NaCl, 10% glycerol, and 20 mM melibiose) at four temperatures (0, 45, 55, and 65° C.) for 90 minutes. An insoluble material was removed by ultracentrifugation at 355,590 g at 4° C. for 45 minutes using a Beckman Optima™ MAX ultracentrifuge equipped with a TLA-100 rotor. A dissolved portion was separated by SDS-16% PAGE, and immunoblotting was then performed using a Penta-His-HRP antibody (Qiagen, Germantown, Md.). A membrane fraction containing 20 μg of protein without treatment was used to illustrate the overall MelB, and the treated samples were loaded into each well in equal volume. MelBSt was measured using the SuperSignal West Pico Chemiluminescent substrate by ImageQuant LAS 4000 Biomolecular Imager (GE Healthcare Life Sciences).
For orientation: In western blotting, separated proteins are transferred to a membrane and probed.

In data set [6] the target is T1, human β2 adrenergic receptor (β2AR). The data set can be described thus: Size exclusion chromatography (SEC) of β2AR receptor-detergent complex. Particulars: 20×CMC detergent. As to the method: FIG. 11 illustrates a result of evaluating the size characteristic of a (32AR protein-ligand binding complex formed of RGA-C11, RGA-C13, or DDM via a size exclusion chromatography (SEC) test.
In addition, a size exclusion chromatography (SEC) test was conducted. Specifically, β2AR purified with 0.1% DDM was loaded on a M1 Flag column in the presence of 2 mM CaCl2, and the column was washed with a DDM, RGA-C11 or RGA-C13 detergent buffer (20 mM HEPES pH 7.5, 100 mM NaCl, 0.2% individual amphipathic compound). The receptor was eluted with 20×CMC DDM, RGA-C11, or RGA-C13 with 5 mM EDTA and 0.2 mg/ml free Flag peptide. The eluate was further added to a Superdex-200 10/300 GL column (GE Healthcare) at 0.5 ml/min, and UV absorbance at 280 nm was recorded. The running buffer contained 20 mM HEPES pH 7.5, 100 mM NaCl, 20×CMC individual detergent (DDM, RGA-C11 and RGA-C13).
On the technique in general: Size exclusion chromatography separates by hydrodynamic size, large species first.

T1 sequence (P07550 whole entry): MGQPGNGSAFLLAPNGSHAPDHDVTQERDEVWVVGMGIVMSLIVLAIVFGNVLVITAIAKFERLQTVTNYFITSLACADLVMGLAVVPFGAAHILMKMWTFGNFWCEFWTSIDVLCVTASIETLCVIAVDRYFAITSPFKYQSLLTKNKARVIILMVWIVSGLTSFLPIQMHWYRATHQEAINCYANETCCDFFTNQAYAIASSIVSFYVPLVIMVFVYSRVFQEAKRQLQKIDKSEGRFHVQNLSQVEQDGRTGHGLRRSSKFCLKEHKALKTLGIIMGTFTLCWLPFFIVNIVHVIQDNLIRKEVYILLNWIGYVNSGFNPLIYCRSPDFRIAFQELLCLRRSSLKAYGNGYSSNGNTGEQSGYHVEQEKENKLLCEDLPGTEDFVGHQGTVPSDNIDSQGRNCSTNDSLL
T3 sequence (P30878 whole entry): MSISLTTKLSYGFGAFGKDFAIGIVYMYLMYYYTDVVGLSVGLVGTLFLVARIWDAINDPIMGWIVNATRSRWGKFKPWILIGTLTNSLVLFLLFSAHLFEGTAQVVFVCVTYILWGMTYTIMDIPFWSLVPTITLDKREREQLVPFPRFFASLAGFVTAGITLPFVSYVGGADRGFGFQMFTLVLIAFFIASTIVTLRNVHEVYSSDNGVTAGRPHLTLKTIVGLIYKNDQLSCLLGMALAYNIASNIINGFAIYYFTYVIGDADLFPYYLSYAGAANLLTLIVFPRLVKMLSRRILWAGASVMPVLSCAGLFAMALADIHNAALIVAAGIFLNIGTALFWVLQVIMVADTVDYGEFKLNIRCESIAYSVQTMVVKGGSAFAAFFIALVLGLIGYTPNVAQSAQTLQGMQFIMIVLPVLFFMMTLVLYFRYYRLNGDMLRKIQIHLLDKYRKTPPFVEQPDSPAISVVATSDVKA
T2 sequence (Q07307 12-574 G411V): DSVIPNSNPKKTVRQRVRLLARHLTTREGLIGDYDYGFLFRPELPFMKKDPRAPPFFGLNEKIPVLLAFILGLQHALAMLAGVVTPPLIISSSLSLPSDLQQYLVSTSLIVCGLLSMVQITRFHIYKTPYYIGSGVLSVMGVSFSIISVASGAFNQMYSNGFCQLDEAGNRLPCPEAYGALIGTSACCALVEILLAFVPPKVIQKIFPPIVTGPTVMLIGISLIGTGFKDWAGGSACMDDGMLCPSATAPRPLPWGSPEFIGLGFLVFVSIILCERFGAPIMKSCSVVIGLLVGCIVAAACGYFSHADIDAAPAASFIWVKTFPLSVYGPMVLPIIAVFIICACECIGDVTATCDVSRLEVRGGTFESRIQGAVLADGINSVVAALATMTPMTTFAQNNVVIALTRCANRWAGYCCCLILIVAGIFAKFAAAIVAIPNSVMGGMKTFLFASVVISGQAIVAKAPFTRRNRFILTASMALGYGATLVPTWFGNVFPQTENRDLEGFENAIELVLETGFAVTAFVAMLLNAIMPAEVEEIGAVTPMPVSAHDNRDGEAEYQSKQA

Turning to `CCCCCCCC[C@H]1c2cc(c(OCCO[C@@H]3OC(CO)[C@@H](O)[C@H](O)C3O)cc2OCCO[C@@H]2OC(CO)[C@@H](O)[C@H](O)C2O)[C@H](CCCCCCCC)c2cc(c(OCCO[C@@H]3OC(CO)[C@@H](O)[C@H](O)C3O)cc2OCCO[C@@H]2OC(CO)[C@@H](O)[C@H](O)C2O)[C@@H](CCCCCCCC)c2cc(c(OCCO[C@@H]3OC(CO)[C@@H](O)[C@H](O)C3O)cc2OCCO[C@@H]2OC(CO)[C@@H](O)[C@H](O)C2O)[C@@H](CCCCCCCC)c2cc1c(OCCO[C@@H]1OC(CO)[C@@H](O)[C@H](O)C1O)cc2OCCO[C@@H]1OC(CO)[C@@H](O)[C@H](O)C1O` (stereo partly drawn) [RGA-C9], the “maintaining the ligand binding characteristic of the receptor compared to DDM” value in data set [1] is listed as “inferior to DDM”. Further, in data set [2], the CMC was around 7 µM and the “CMC (wt %)” value was around 0.018 wt %. Further, in data set [3], the “ability to maintain the UapA protein in a folded state compared to DDM” value is “highest effect”. Further, in data set [4], the “Rh (nm), hydrodynamic radius of micelles” value worked out at 2.9 ± 0.1 nm.

As to `CCCCCCCCCCCC[C@H]1c2cc(c(OCCO[C@@H]3OC(CO)[C@@H](O)[C@H](O)C3O)cc2OCCO[C@@H]2OC(CO)[C@@H](O)[C@H](O)C2O)[C@H](CCCCCCCCCCCC)c2cc(c(OCCO[C@@H]3OC(CO)[C@@H](O)[C@H](O)C3O)cc2OCCO[C@@H]2OC(CO)[C@@H](O)[C@H](O)C2O)[C@@H](CCCCCCCCCCCC)c2cc(c(OCCO[C@@H]3OC(CO)[C@@H](O)[C@H](O)C3O)cc2OCCO[C@@H]2OC(CO)[C@@H](O)[C@H](O)C2O)[C@@H](CCCCCCCCCCCC)c2cc1c(OCCO[C@@H]1OC(CO)[C@@H](O)[C@H](O)C1O)cc2OCCO[C@@H]1OC(CO)[C@@H](O)[C@H](O)C1O` (stereo partly drawn) [RGA-C13], the “maintaining the ligand binding characteristic of the receptor compared to DDM” value in data set [1] was “superior to DDM”. Besides, the “ability to maintain the ligand binding of the receptor over time compared to DDM” value in data set [1] (2 days at room temperature, early stage (0 to 12 h)) was “superior ability to maintain the ligand binding of the receptor compared to DDM”. Also, the “receptor stability / ligand binding maintenance relative to DDM (fold, in words)” value in data set [1] (incubation at room temperature, early stage) was “enhanced by almost three times”. Moreover, in data set [5], the “MelB protein extraction efficiency and solubility” value is on record as “maintained MelB solubility better than DDM; also recorded: higher protein extraction efficiency than DDM”. Moreover, the “CMC (wt %)” value in data set [2] is around 0.0056 wt %. Moreover, in data set [6], the “size of receptor-detergent complex” value is “significantly smaller than that formed of DDM”. Moreover, the “Rh (nm), hydrodynamic radius of micelles” value in data set [4] is reported as 3.7 ± 0.1 nm.
